Earlier results, collected in article PMC7615676, “Short-course combination treatment for experimental chronic Chagas disease” (Science translational medicine, 2023).

Tests used:
[1] = test system: chronic T. cruzi infection (CL Brener) in BALB/c mice; parameters: method as in PMID 27748443; settings: cited from earlier work
[2] = parameters: method as in PMID 21073628, PMID 20932171; settings: patients; cited from earlier work

O=C(Cn1ccnc1[N+](=O)[O-])NCc1ccccc1 [Benznidazole, reference compound]
minimum efficacious dose in a five-day chronic study [1]: 100 mg/kg | discontinuation of treatment prior to completion due to adverse side-effects [2]: up to 29%
